{"source": "patent US20100029542A1", "about": "“PROTEIN STERILISATION BY RADIATION AND ADDITION OF A STABILISING COMPOSITION” (priority 2006, published 2010)", "key": {"catalase": {"biological_target": "T1, catalase (Bos taurus, UniProt P00432)", "T1 construct": "Catalase (from bovine liver, Sigma C9322, 2380 U /mg solid); purchased Sigma C9322; host or cells: bovine liver", "T1 sequence (P00432 2-527 limits assumed)": "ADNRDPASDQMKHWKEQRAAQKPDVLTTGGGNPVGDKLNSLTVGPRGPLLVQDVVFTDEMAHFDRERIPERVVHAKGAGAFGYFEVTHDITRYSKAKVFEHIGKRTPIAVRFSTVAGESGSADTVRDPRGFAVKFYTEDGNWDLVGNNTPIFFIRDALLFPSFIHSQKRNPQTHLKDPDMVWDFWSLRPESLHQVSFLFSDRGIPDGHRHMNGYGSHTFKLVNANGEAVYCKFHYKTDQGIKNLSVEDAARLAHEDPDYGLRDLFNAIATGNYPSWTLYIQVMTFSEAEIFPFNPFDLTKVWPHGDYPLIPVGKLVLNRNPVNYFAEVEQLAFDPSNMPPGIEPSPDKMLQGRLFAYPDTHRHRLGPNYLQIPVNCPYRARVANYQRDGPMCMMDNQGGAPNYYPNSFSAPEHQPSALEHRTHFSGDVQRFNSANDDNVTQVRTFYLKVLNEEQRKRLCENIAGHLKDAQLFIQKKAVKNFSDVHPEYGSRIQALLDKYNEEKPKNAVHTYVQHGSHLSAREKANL", "experiment": "Activity recovery of catalase in dry formulations following gamma irradiation", "assay_type": "physicochemical, bovine", "settings": "Table 10, superoxide scavengers; catalase 100 μg mL^−1 prior to drying; dry; 25-40 kGy", "description": "(§1) In each example, an aqueous solution of a protein was prepared with selected additives in an Eppendorf tube or in a glass vial. Water was removed from the formulation by drying under a stream of nitrogen at 30° C. and subsequent incubation at atmospheric pressure in the presence of a dessicant. The Eppendorf tubes or the glass vials were sealed and delivered to an industrial sterilisation service for gamma irradiation, with a dose range typical for sterile medical products. The gamma-irradiated samples were reconstituted on their return and analysed for protein activity or structural integrity. The results were compared with those achieved using control (i.e. non-irradiated) samples.\n(§2) The dry samples (approx. 20 μg in an Eppendorf tube) were gamma-irradiated by an industry-standard commercial sterilising service provided by Isotron PLC (Swindon, Wilts, UK), using a Cobalt 60 gamma source at ambient temperature. The radiation dose was in the range of 25-40 kGy.\nThe original solutions (i.e. solutions prior to drying) contained 100 μg mL^−1 of catalase and typically the total of 100 mM of protective compounds (i.e. 100 mM in case of a single compound, 50 mM+50 mM in case of two compounds, 33.3 mM+33.3 mM+33.3 mM in the case of three compounds etc.). The solutions were dried and gamma irradiated. Following the gamma irradiation, the samples, both pre- and post-gamma irradiated, were assayed for […] activity. This was performed according to the following procedure:\nWater was added to the sample to achieve 100 μg mL^−1 of catalase. 100 μL of the solution was added to a mixture of 18 mL of PBS and 2 mL of hydrogen peroxide (30 mM in water) in a 125 mL polypropylene pot and mixed. The resulting mixture was incubated at room temperature precisely for 30 min. In the meantime, the following reagents were mixed in a plastic cuvette for spectrophotometric measurements: • 2.73 mL of citrate/phosphate buffer (0.1 M, pH 5.0) • 100 μL of tetramethylbenzidine (TMB) (3 mg/mL, dissolved in dimethyl sulphoxide (DMSO)) • 100 μL of lactoperoxidase\nFollowing the 30 min incubation period, 70 μL of the catalase containing mixture was added to the cuvette and absorbance was read in approximately 30 s. The results were expressed as percentage recovery, by reference to the absorbance measured in the fresh samples (i.e. prior to incubation at increased temperature)."}, "[1]": {"settings": "cited from earlier work"}, "Sandostatin": {"tested_on": "Sandostatin", "experiment": "Recovery of structural integrity of Sandostatin in dry formulations following gamma irradiation (HPLC)", "assay_type": "physicochemical", "settings": "structural integrity by HPLC, excipient:Sandostatin weight ratio 10:1, 25-40 kGy", "description": "as §1, §2\nMobile phase A was 0.1 M triethylamine adjusted to pH 2.3 with phosphoric acid. Mobile phase B was acetonitrile. The mobile phases were filtered prior to their use. The following linear gradient was used: time 0: 90% A+10% B; time 35 min: 60% A+40% B. The liquid chromatograph (Agilent 1100 series) was equipped with a 214 nm detector, guard column and a 4.6×150 mm C18 column with a granulometry of 5 μm and a porosity of 30 nm, maintained at ambient temperature. The flow rate was maintained at 1.0 mL min^−1. Injection volume was 50 μL (typically sandostatin at 200 μg mL^−1). Results were expressed as % of main peak area (i.e. area of the peak corresponding to intact sandostatin measured in the gamma irradiated sample with respect to that measured in non-irradiated sample of identical composition). A chromatogram of a standard solution of sandostatin was recorded after every 12 samples to ensure that no drift in the position of the major peak had occurred. The control measurements ruled out any ambiguity in interpreting the chromatograms."}, "human growth hormone": {"biological_target": "T2, human growth hormone (Homo sapiens, UniProt P01241)", "T2 construct": "purchased National Institute of Biological Standards and Control; further samples on prescription from a GP surgery", "T2 sequence (P01241 27-217)": "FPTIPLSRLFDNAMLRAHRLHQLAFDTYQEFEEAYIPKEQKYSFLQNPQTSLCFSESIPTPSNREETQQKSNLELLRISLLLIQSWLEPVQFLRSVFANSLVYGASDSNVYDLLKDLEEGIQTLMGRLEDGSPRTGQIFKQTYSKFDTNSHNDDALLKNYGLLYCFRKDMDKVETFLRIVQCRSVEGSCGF", "experiment": "Recovery of structural integrity of human growth hormone in dry formulations following gamma irradiation (HPLC)", "assay_type": "physicochemical", "settings": "structural integrity by HPLC, human growth hormone 2.5 mg mL^−1 prior to drying, 25-40 kGy", "description": "as §1, §2\nMobile phase was prepared by mixing 71 parts (by volume) of a solution of TRIS (0.05 M, in water adjusted with hydrochloric acid to a pH of 7.5) and 29 parts (by volume) of n-propylalcohol. The mobile phase was filtered prior to its use. The liquid chromatograph (Agilent 1100 series) was equipped with a 214 nm detector and a 4.6×250 mm column (Phenomenex 00G-4167-E0) packed with butylsilyl silica gel with a granulometry of 5 μm and a porosity of 30 nm, maintained at 45° C. The flow rate was maintained at 0.5 mL min^−1. 15 μL of aqueous samples of human growth hormone (typically 1-2.5 mg mL^−1) were injected. Results were expressed as % of peak area corresponding to the gamma irradiated sample with respect to that measured in non-irradiated sample."}}, "note": "Where two headings read alike, the source gives them in different places.", "data": [{"smiles": "CSCC[C@H](N)C(=O)O", "note": "[Methionine]", "values": [{"measurement": "Enzyme activity remaining after gamma-irradiation", "setting": "catalase", "value": 44.3, "unit": "%"}, {"measurement": "Rate of reaction with singlet oxygen", "setting": "[1]; Table 5", "value": "1.3e+07", "unit": "M⁻¹ s⁻¹"}, {"measurement": "Rate of reaction with singlet oxygen", "setting": "[1]; Table 7", "value": "1.3e+07", "unit": "M⁻¹ s⁻¹"}, {"measurement": "Rate of reaction with singlet oxygen", "setting": "[1]; Table 8", "value": "1.3e+07", "unit": "M⁻¹ s⁻¹"}, {"measurement": "Enzyme activity remaining after gamma-irradiation", "setting": "Sandostatin; Table 8, singlet oxygen scavengers", "value": 91.1, "unit": "%"}, {"measurement": "Enzyme activity remaining after gamma-irradiation", "setting": "Sandostatin; Table 12, superoxide scavengers", "value": 91.1, "unit": "%"}, {"measurement": "Structural integrity remaining after gamma-irradiation (HPLC)", "setting": "human growth hormone; Table 4, prior-art antioxidants, ambient temperature", "value": 69.7, "unit": "%"}, {"measurement": "Structural integrity remaining after gamma-irradiation (HPLC)", "setting": "human growth hormone; Table 7, singlet oxygen scavengers", "value": 69.7, "unit": "%"}, {"measurement": "Structural integrity remaining after gamma-irradiation (HPLC)", "setting": "human growth hormone; Table 11, superoxide scavengers", "value": 69.7, "unit": "%"}]}]}
